What all share (experiment): NCI tumour cell line growth inhibition, 48 h
For test [1], the system named is NCI-H23.
Test [2] relates to RXF 393.
Test [3] relates to BT-549.
The subject of test [4] is CCRF-CEM.
Test [5] has as its system SK-MEL-2.
The subject of test [6] is NCI-H522.
Test [7] relates to ACHN.
For test [8], the system named is HOP-62.
The subject of test [9] is U-251.
Test [10] relates to OVCAR-4.
Test [11] has as its system MDA-MB-435.
The subject of test [12] is HCC 2998.
For test [13], the system named is Hs-578T.
Test [14] relates to HOP-92.
Test [15] deals with HT-29.
Test [16] relates to UACC-257.
For test [17], the system named is NCI/ADR-RES.
For test [18], the system named is SR.
Test [19] concerns Malme-3M.

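These data come from cells grown in 96-well plates and exposed to compound for 48 hours at five concentrations. GI50 is the concentration that inhibits growth by half.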 Activity calls are given as the source filed them. No stated cut-off is given here; in the data, active = GI50 up to about 1.1 µM and inactive = higher.

With `N#Cc1c(N)[nH]c2ccc(Sc3ccccc3)cc12`, the GI50 was 0.323 µM (active) in test [1]; 0.208 µM (active) in test [2]; 1.16 µM (inactive) in test [3]; 0.151 µM (active) in test [4]; 0.338 µM (active) in [5]; 0.112 µM (active) in test [6]. The GI50 was 0.284 µM (active) in [7]; 0.456 µM (active) in test [8]; 0.297 µM (active) in [9]; 0.675 µM (active) in test [10]; < 0.107 µM (active) in test [11]; 0.516 µM (active) in test [12]. Also, the GI50 is 0.449 µM (active) in test [13]; 1.78 µM (inactive) in [14]; 0.21 µM (active) in [15]; 12.8 µM (inactive) in [16]; 0.101 µM (active) in test [17].

For the molecule `CCCCN1C(=O)c2c(Br)sc(Br)c2C1=O`, the GI50 in test [1] is 44.3 µM (inactive); in test [2], 52 µM (inactive); in test [3], 61.9 µM (inactive); in test [18], 21.2 µM (inactive); in test [4], 26.3 µM (inactive); in [5], 46 µM (inactive). The GI50 in [6] was 0.391 µM (active); in test [7] it was 47.8 µM (inactive); in test [8] it was 26.6 µM (inactive); in [9] it was 39.1 µM (inactive); in test [19], 33.2 µM (inactive); in test [10] it was 25.7 µM (inactive). Besides, the GI50 was 37.4 µM (inactive) in test [11]; 33.8 µM (inactive) in test [12]; 23.3 µM (inactive) in test [15]; 30.4 µM (inactive) in test [16]; 30.9 µM (inactive) in test [17].

For `CC(C)Oc1ccc2c(c1)OCC1Cc3ccccc3OC21` (configuration not stated), the GI50 in test [1] was 89.9 µM (inactive); in test [3], 58.2 µM (inactive); in test [18], > 100 µM (inactive); in test [4], > 100 µM (inactive); in test [5] it was > 100 µM (inactive); in test [6] it was 79.1 µM (inactive). Moreover, the GI50 in [8] is > 100 µM (inactive); in [9] it was > 100 µM (inactive); in [19] it was > 100 µM (inactive); in test [11], 63.2 µM (inactive); in [12], 96.8 µM (inactive); in test [14], > 100 µM (inactive). The GI50 was 41.4 µM (inactive) in [15], 33.7 µM (inactive) in test [16] and 71.9 µM (inactive) in test [17].

Turning to `CCOC(=O)CCC(NC(=O)OCc1ccccc1)C(=O)NC(CCC(=O)OCC)C(=O)NC(CCC(=O)OCC)C(=O)NNC(=O)OC(C)(C)C` (configuration not stated), the GI50 is > 100 µM (inactive) in test [1]; > 100 µM (inactive) in test [2]; > 100 µM (inactive) in test [3]; > 100 µM (inactive) in test [18]; 49 µM (inactive) in [4]; > 100 µM (inactive) in [5]. Moreover, the GI50 in test [7], in test [8], in test [9], in test [19], in [12] and in [13] was > 100 µM (inactive) in each case. Moreover, the GI50 in test [14], in test [15] and in test [16] was > 100 µM (inactive) in each case.

As to `Cn1c(=O)c2c(nc3sc4ccccc4c(=O)n32)n(C)c1=O`, the GI50 in test [1], in test [2], in test [3], in test [5], in test [7] and in test [8] was > 100 µM (inactive) each time. For the same molecule, the GI50 in test [9], in test [10], in test [11], in [12], in test [13] and in [14] was > 100 µM (inactive) throughout. Besides, the GI50 in test [15], in test [16] and in [17] was > 100 µM (inactive) in each case.

Consider `CSc1cnn(CCC#N)c(=O)n1`, for which the GI50 is > 100 µM (inactive) in test [1]; > 100 µM (inactive) in test [2]; > 100 µM (inactive) in test [3]; 40.9 µM (inactive) in [18]; 31 µM (inactive) in test [4]; > 100 µM (inactive) in test [6]. In addition, the GI50 in [7], in test [8], in test [9], in [19], in test [11] and in [12] was > 100 µM (inactive) each time. For the same molecule, the GI50 in test [13] is > 100 µM (inactive); in test [15], > 100 µM (inactive); in test [16] it was 62.5 µM (inactive).

Take `O=S(=O)(c1ccccc1)n1c(C(O)c2ccncc2)cc2ccccc21` (configuration not stated): the GI50 in [1] is 44.7 µM (inactive); in test [2] it was 48.2 µM (inactive); in test [3], 45.4 µM (inactive); in test [18], 38.5 µM (inactive); in test [4], 35.6 µM (inactive); in test [5] it was 52.6 µM (inactive). The GI50 in [7] is 37.7 µM (inactive); in test [8], > 100 µM (inactive); in test [9], 41 µM (inactive); in test [10] it was 31.8 µM (inactive); in test [11], 36.3 µM (inactive); in [14] it was 27 µM (inactive). Besides, the GI50 was 44.6 µM (inactive) in test [15], 10.7 µM (inactive) in [16] and 35.2 µM (inactive) in test [17].

Take `CC(=O)/C(=C\Nc1c(C)n(C)n(C)c1=O)C(=O)c1ccccc1`: the GI50 in test [1], in test [2], in test [3], in [18], in test [4] and in test [5] was > 50 µM (inactive) throughout. The GI50 in test [6], in test [7], in test [8], in test [9], in test [19] and in test [10] was > 50 µM (inactive) each time. For the same molecule, the GI50 was > 50 µM (inactive) in test [11]; > 50 µM (inactive) in test [12]; > 50 µM (inactive) in test [13]; 26.5 µM (inactive) in test [14]; > 50 µM (inactive) in test [15]; > 50 µM (inactive) in [16].

As to `CC(Nc1ccc(Cl)cc1)c1ccncc1` (configuration not stated), the GI50 in test [1] was 56.8 µM (inactive); in test [2], 41.8 µM (inactive); in test [3] it was > 100 µM (inactive); in test [4] it was 83.9 µM (inactive); in [5] it was > 100 µM (inactive); in test [6], 69.5 µM (inactive). Moreover, the GI50 in test [7], in test [8], in test [9], in [19], in [10] and in test [11] was > 100 µM (inactive) each time. The GI50 in test [12] is > 100 µM (inactive); in test [13] it was > 100 µM (inactive); in [15], 89.5 µM (inactive); in test [16] it was 55.7 µM (inactive); in test [17] it was 61.5 µM (inactive).

In the case of `CCOC(=O)C1(NC(=O)OC(C)(C)C)CCc2[nH]oc(=O)c2C1` (configuration not stated), the GI50 in [1], in [3], in test [4], in [5], in test [6] and in test [7] was > 100 µM (inactive) throughout. For the same molecule, the GI50 in [8], in test [9], in test [19], in test [10], in test [11] and in [12] was > 100 µM (inactive) in each case. For the same molecule, the GI50 in test [13], in test [14], in test [15], in [16] and in [17] was > 100 µM (inactive) in each case.

For `c1ccc([P+](Cc2ccccc2C[P+](c2ccccc2)(c2ccccc2)c2ccccc2)(c2ccccc2)c2ccccc2)cc1`, the GI50 in [1] is 87.3 µM (inactive); in test [2], > 100 µM (inactive); in [3], 65.9 µM (inactive); in test [5], > 100 µM (inactive); in [6], > 100 µM (inactive); in test [7], > 100 µM (inactive). The GI50 in [8] was > 100 µM (inactive); in [9], 63.5 µM (inactive); in test [19], > 100 µM (inactive); in test [11], 42.8 µM (inactive); in test [12] it was > 100 µM (inactive); in test [13] it was > 100 µM (inactive). Besides, the GI50 in test [15] is 51.2 µM (inactive); in test [16] it was > 100 µM (inactive); in [17], > 100 µM (inactive).

For the molecule `CN(C)C(=S)S` [SODIUM DIMETHYLCARBAMODITHIOATE], the GI50 was > 50.8 µM (inactive) in test [1]; 83.9 µM (inactive) in test [2]; > 100 µM (inactive) in test [3]; 18.1 µM (inactive) in test [5]; 0.194 µM (active) in test [6]; > 71 µM (inactive) in test [7]. The GI50 in [9] is 98.6 µM (inactive); in test [19] it was > 43.8 µM (inactive); in test [10], 36.9 µM (inactive); in test [11] it was > 78 µM (inactive); in test [12] it was 20.1 µM (inactive); in [13], > 100 µM (inactive). In addition, the GI50 in [14] was > 100 µM (inactive); in test [15], 11.5 µM (inactive); in test [16], > 100 µM (inactive); in test [17] it was > 100 µM (inactive).

Source of the values: ChEMBL document CHEMBL1201862, “PubChem BioAssay data set” (2004).
